Experimental data published in patent US11007273B2, “Prochelators as targeted prodrugs for prostate cancer and methods of making and using same” (Duke University, priority 2017, dated 2021).
Like-named read-outs stand apart in the source and are kept apart here.

Tests used:
PC-3 cells = test: cells; format: cell-based, human; conditions: Homo sapiens, PC-3
Method: (§1) Antiproliferation assay: To determine the amount of Cu(II) required for cell studies a checkerboard assay was performed by varying the prodrug or drug concentration and Cu(II) concentration. 22RV1, LNCaP, PC3, MCF-7, and PWR-1E (5,000 cells/well) were seeded in 96-well plates with regular media (22Rv1, LNCaP, and PC-3 in RPMI with 10% FBS; MCF-7 in DMEM with 10% FBS; PWR-1E in Keratinocyte-SFM) and let adhere for 24 h. The following day, the media was replaced with serum free media and cells were treated as indicated for an additional 24 h or 72 h. Cell proliferation was measured using a fluorometric resazurin reduction method. 20 μL of 700 μM Resazurin (Sigma R7017) was added in each well and incubated at 37° C. for 2 h. Fluorescence at 580 nm was measured by exciting at 555 nm with a plate reader. Each experiment was performed in triplicate, and the experiments were repeated three times. Viability vs drug concentration plot from a representative experiment are shown with standard deviation from the experiment as error bar. The error bar in IC50 values represents standard deviation from three different experiments.

LNCaP cells = test: cells; format: cell-based, human; conditions: Homo sapiens, LNCaP, LNCaP
Method: as §1

MCF-7 cells = test: cells; format: cell-based, human; conditions: Homo sapiens, MCF7, MCF-7
Method: as §1

22Rv1 cells = test: cells; format: cell-based, human; conditions: for IC50: Homo sapiens, 22Rv1
Method: as §1

PWR-1E cells = test: cells; format: cell-based, human; conditions: Homo sapiens, PWR-1E, PWR-1E
Method: as §1

[1] = tested on: 22Rv1, LNCaP, PC3, PWR-1E and MCF-7 cells; test: Antiproliferation assay across all cell lines; format: cell-based; conditions: Homo sapiens, 72 h
Method: as §1

mCRPC patients = conditions: phase 1, mCRPC patients; cited from earlier work
GGT = GGT (Homo sapiens, UniProt P19440); test: Competition experiments vs. γE-pNA for GGT; format: biochemical; conditions: vs E-pNA; PBS, pH 7.4, 1 mM GlyGly
Method: Competition experiments vs. γE-pNA for GGT: To perform the inhibition study, a serial dilution of γE-pNA was performed ranging from 1 mM to 3 μM in PBS with 1 mM Gly-Gly (dilution factor=0.5; pH 7.4; 10% DMSO; 100 μL) using a clear, flat bottom 96 well plate. GGT binding molecules, as indicated, were added to separate sets of triplicate wells to reach a final concentration of 10 and 100 μM. Before the addition of enzyme, the plate was cooled to 4° C. for 15 min. To initiate the assay, 10 μL of 50 U/L GGT was added to each well and an initial absorbance scan was performed. Subsequent scans were performed every 10 min for ˜2 h. In between each scan, the plates were stored at 37° C. in a humidified incubator to reduce solvent evaporation. The experiment was repeated in triplicate.
To probe the reactivity of Glu-DTC in comparison to the enzyme's natural substrate GSH, competition experiments were conducted against the colorimetric substrate L-glutamic acid γ-(p-nitroanilide) [E-pNA]. The colorimetric assay involves monitoring p-nitroaniline release by absorbance at 405 nm upon reaction of the probe substrate E-pNA with GGT in the presence of an inhibiting substrate, either Glu-DTC (FIG. 15A) or GSH (FIG. 15C).

[2] = 24 h, 1 μM CuSO4, read-out: IC50 with 1 μM CuSO4
[3] = 72 h, 1 μM CuSO4, read-out: IC50 with 1 μM CuSO4
[4] = Table 1, time and Cu not given, read-out: IC50 values
[5] = 24 h, 24 h, 1 μM CuSO4, read-out: IC50 with 1 μM CuSO4
[6] = 72 h, 72 h, 1 μM CuSO4, read-out: IC50 with 1 μM CuSO4

Chain of GGT (P19440 whole entry, species assumed): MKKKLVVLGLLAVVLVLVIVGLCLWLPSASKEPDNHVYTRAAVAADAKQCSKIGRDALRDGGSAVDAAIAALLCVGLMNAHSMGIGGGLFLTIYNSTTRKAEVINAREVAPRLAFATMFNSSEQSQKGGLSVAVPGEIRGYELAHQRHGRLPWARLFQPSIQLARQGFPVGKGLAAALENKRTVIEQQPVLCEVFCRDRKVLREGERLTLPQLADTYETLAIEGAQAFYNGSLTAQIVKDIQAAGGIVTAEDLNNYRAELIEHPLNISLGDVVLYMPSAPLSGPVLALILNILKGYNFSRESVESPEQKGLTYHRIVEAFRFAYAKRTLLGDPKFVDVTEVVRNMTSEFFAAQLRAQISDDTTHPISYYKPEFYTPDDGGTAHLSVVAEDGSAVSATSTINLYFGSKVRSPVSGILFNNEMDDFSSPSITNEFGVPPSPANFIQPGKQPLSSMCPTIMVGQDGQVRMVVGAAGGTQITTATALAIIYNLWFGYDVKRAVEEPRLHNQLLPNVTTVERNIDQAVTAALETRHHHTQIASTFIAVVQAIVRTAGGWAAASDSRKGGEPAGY

## CCN(CC)C(=S)SSC(=S)N(CC)CC [DSF, disulfiram, reference compound]
PC-3 cells; [2]
  IC50: 70 ± 10 nM
PC-3 cells; [3]
  IC50: 57 ± 10 nM
PC-3 cells; [4]
  IC50: 66 nM
LNCaP cells; [5]
  IC50: 130 ± 20 nM
LNCaP cells; [6]
  IC50: 140 ± 10 nM
LNCaP cells; [4]
  IC50: 120 nM
MCF-7 cells; [2]
  IC50: 180 ± 10 nM
MCF-7 cells; [3]
  IC50: 47 ± 2 nM
MCF-7 cells; [4]
  IC50: 130 nM
22Rv1 cells; [2]
  IC50: 72 ± 10 nM
22Rv1 cells; [3]
  IC50: 92 ± 5 nM
22Rv1 cells; [4]
  IC50: 65 nM
22Rv1 cells; checkerboard pilot studies in 22Rv1 cells
  Cu(II) added to the growth medium required for antiproliferative activity: 300 nM
PWR-1E cells; [5]
  IC50: 80 ± 20 nM
PWR-1E cells; [6]
  IC50: 70 ± 10 nM
PWR-1E cells; [4]
  IC50: 72 nM
[1]; 1 μM CuSO4, read-out: IC50 range across all cell lines
  IC50: 40 to 150 nM
[1]; DSF is a dimer of DTC, read-out: IC50 per monomer
  IC50: 80 to 300 nM
mCRPC patients
  patients who developed grade 3 adverse events: 6 of the 12
  toxicity and efficacy outcome: significant toxicity without improvement in efficacy

## N[C@@H](CCC(=O)N[C@@H](CS)C(=O)NCC(=O)O)C(=O)O [GSH, glutathione, reference compound]
GGT
  Ki: 99000 ± 7000 nM
